Results: paper PMC6199744, “Development of Chemical Proteomics for the Folateome and Analysis of the Kinetoplastid Folateome” (ACS Infectious Diseases, 2018)
Where two headings read alike, the source gives them in different places.

Assays:
Type in all cases: binding
[1] = molecular target: T1, HeLa cell extract proteins (Homo sapiens, UniProt Q14974)
T1 construct: endogenous in cells; host or cells: HeLa cell extract

[2] = molecular target: T2, HeLa cell extract proteins (Homo sapiens, UniProt P49773)
T2 construct: endogenous in cells; host or cells: HeLa cell extract

[3] = molecular target: T3, HeLa cell extract proteins (Homo sapiens, UniProt P62826)
T3 construct: endogenous in cells; host or cells: HeLa cell extract

[4] = molecular target: T4, HeLa cell extract proteins (Homo sapiens, UniProt P54136)
T4 construct: endogenous in cells; host or cells: HeLa cell extract
T4 sequence (P54136 1-660): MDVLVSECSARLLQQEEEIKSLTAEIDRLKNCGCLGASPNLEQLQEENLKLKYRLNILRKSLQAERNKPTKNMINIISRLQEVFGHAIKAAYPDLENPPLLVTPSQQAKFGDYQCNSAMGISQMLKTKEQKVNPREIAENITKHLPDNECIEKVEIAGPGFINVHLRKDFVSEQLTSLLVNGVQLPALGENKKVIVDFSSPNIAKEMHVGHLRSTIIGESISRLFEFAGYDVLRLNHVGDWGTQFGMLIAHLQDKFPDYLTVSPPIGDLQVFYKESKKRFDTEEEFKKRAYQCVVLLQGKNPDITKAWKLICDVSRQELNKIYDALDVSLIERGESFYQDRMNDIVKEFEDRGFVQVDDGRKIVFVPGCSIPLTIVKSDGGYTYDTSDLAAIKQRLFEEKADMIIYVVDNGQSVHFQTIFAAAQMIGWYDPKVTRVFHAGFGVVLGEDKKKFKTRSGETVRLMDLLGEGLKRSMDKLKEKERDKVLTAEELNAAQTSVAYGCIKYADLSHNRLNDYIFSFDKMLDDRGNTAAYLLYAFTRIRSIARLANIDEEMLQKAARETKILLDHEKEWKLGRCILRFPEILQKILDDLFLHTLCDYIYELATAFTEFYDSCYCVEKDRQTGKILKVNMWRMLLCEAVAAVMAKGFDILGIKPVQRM

[5] = molecular target: T5, HeLa cell extract proteins (Homo sapiens, UniProt Q9UBN7)
T5 construct: endogenous in cells; host or cells: HeLa cell extract
T5 sequence (Q9UBN7 1-1215): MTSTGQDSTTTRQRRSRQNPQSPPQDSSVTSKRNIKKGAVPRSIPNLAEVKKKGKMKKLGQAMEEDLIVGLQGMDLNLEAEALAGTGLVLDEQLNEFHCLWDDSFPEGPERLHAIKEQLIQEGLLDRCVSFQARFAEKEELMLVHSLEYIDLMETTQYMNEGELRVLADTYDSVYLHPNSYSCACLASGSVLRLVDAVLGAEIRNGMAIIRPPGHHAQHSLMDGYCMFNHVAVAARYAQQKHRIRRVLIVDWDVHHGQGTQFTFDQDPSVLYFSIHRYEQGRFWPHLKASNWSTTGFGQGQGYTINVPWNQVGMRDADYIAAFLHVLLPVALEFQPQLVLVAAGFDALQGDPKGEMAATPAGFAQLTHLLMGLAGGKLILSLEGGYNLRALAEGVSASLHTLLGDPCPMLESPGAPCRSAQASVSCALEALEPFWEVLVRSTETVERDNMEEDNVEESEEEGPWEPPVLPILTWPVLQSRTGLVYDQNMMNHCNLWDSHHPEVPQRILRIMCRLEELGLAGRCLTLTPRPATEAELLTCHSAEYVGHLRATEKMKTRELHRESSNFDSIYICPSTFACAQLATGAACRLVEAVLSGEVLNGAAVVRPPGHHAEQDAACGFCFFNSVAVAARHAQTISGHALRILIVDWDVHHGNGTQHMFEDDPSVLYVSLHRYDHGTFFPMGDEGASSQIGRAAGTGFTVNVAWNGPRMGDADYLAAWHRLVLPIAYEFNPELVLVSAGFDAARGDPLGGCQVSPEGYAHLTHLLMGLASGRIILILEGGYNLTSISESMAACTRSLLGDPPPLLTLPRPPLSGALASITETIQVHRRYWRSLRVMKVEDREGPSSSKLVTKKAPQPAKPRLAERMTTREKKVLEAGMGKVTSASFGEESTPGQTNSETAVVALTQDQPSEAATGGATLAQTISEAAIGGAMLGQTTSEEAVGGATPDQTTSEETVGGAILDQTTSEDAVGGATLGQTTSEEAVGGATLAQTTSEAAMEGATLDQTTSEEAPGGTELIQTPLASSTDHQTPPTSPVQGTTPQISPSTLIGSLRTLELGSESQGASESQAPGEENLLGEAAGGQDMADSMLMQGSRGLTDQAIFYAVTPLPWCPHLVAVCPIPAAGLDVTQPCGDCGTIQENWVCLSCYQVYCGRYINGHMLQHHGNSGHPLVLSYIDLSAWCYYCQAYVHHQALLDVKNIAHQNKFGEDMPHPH

[6] = molecular target: T6, HeLa cell extract proteins (Homo sapiens, UniProt P56381)
T6 construct: endogenous in cells; host or cells: HeLa cell extract
T6 sequence (P56381 1-51): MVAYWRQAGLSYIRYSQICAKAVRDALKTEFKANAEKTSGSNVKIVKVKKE

[7] = molecular target: T7, HeLa cell extract proteins (Homo sapiens, UniProt Q9H0N5)
T7 construct: endogenous in cells; host or cells: HeLa cell extract

[8] = molecular target: T8, HeLa cell extract proteins (Homo sapiens, UniProt Q9UH17)
T8 construct: endogenous in cells; host or cells: HeLa cell extract

[9] = molecular target: T9, HeLa cell extract proteins (Homo sapiens, UniProt P06576)
T9 construct: endogenous in cells; host or cells: HeLa cell extract

[10] = molecular target: T10, HeLa cell extract proteins (Homo sapiens, UniProt Q9BVS4)
T10 construct: endogenous in cells; host or cells: HeLa cell extract
T10 sequence (Q9BVS4 whole entry): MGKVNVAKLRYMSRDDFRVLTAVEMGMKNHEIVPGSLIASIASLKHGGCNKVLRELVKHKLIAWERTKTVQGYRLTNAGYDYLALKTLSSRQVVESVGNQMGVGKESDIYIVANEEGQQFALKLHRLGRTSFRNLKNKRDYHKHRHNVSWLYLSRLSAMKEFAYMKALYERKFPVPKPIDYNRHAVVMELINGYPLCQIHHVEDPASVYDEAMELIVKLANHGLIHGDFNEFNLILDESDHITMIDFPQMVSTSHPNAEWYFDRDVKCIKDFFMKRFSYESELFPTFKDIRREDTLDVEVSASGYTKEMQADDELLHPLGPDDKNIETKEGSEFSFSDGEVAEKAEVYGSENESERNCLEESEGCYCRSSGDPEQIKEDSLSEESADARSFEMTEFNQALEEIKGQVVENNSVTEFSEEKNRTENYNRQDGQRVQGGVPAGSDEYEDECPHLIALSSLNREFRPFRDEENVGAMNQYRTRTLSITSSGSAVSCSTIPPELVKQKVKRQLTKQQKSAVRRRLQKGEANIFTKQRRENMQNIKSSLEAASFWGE

T8 sequence (Q9UH17 whole entry): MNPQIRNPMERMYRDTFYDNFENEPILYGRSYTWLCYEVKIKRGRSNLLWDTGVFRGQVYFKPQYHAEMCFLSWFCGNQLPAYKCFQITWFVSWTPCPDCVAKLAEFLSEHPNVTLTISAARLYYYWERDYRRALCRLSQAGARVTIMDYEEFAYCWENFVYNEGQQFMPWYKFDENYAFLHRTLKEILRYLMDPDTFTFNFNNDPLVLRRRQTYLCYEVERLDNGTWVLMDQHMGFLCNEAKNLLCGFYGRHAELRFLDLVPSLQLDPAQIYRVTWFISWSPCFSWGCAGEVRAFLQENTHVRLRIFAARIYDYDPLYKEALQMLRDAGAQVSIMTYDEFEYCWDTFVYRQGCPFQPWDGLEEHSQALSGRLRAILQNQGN
T2 sequence (P49773 whole entry): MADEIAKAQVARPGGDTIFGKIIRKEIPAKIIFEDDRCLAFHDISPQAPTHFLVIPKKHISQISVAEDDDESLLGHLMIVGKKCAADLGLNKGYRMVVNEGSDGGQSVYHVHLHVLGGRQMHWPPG
T1 sequence (Q14974 whole entry): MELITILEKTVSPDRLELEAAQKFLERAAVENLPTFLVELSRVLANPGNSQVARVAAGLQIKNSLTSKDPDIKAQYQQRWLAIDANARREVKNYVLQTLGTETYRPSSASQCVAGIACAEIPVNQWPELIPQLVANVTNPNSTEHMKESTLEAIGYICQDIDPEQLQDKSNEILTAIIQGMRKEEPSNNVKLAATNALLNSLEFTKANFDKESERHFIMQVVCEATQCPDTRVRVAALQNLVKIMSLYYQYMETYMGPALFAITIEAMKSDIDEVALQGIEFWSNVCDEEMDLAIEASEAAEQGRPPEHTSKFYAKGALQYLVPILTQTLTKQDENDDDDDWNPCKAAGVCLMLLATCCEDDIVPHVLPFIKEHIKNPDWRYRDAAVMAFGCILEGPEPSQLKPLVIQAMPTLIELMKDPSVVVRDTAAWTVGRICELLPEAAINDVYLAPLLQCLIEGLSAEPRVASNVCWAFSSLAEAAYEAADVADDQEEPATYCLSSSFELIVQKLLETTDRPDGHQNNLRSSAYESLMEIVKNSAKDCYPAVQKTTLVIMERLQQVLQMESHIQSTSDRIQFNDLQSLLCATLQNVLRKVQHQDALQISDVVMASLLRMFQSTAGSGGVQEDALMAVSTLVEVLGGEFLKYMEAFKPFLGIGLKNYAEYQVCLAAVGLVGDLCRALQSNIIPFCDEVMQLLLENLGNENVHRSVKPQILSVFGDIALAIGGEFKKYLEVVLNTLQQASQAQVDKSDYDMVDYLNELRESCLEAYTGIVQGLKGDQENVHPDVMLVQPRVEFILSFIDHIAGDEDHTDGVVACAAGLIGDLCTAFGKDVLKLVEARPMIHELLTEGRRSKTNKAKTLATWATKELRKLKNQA
T9 sequence (P06576 48-529): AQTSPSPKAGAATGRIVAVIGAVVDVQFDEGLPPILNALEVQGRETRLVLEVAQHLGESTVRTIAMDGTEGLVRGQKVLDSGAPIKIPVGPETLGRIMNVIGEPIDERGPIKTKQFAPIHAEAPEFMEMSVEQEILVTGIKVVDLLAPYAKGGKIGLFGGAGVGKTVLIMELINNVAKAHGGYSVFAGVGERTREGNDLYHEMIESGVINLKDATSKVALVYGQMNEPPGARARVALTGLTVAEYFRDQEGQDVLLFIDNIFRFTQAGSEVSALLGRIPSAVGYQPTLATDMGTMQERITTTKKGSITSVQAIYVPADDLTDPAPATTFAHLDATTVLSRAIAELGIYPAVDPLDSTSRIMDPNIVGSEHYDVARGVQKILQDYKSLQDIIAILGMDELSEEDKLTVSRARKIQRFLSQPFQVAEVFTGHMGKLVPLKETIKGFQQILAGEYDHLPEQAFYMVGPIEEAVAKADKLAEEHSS
T7 sequence (Q9H0N5 whole entry): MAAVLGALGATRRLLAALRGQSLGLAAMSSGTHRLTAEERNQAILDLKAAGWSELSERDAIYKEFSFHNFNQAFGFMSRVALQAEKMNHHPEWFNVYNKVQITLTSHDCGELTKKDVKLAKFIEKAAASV

Structure (SMILES) | fold changes relative to vehicle control ([1]; protein KPNB1, HeLa) | fold changes relative to vehicle control ([2]; HeLa, protein HINT1) | fold changes relative to vehicle control ([3]; protein RAN, HeLa) | fold changes relative to vehicle control ([4]; protein RARS, HeLa) | fold changes relative to vehicle control ([5]; captured protein HDAC6, HeLa) | fold changes relative to vehicle control ([6]; captured protein ATP5E, HeLa) | fold changes relative to vehicle control ([7]; captured protein PCBD2, HeLa) | fold changes relative to vehicle control ([8]; HeLa, protein APOBEC3B) | fold changes relative to vehicle control ([9]; protein ATP5B, HeLa) | fold changes relative to vehicle control ([10]; captured protein RIOK2, HeLa) | fold changes relative to vehicle control ([1]; HeLa, protein KPNB1) | fold changes relative to vehicle control ([2]; HeLa, captured protein HINT1) | fold changes relative to vehicle control ([3]; HeLa, protein RAN) | fold changes relative to vehicle control ([4]; HeLa, captured protein RARS) | fold changes relative to vehicle control ([5]; HeLa, captured protein HDAC6) | fold changes relative to vehicle control ([6]; HeLa, captured protein ATP5E) | fold changes relative to vehicle control ([7]; HeLa, captured protein PCBD2) | fold changes relative to vehicle control ([9]; HeLa, captured protein ATP5B) | fold changes relative to vehicle control ([10]; HeLa, protein RIOK2) | further results
Nc1nc2cccc(-c3ccccc3)c2n1Cc1ccc(Cl)c(Cl)c1 [compound 3] | 0.97 | 1.17 | 0.93 | 0.94 | 1.14 | 0.92 | 1 | 1.01 | 0.96 | 0.95 |  |  |  |  |  |  |  |  |  | 
CCCCCCOc1ccc(Cc2cnc(N)nc2N)cc1 [compound 1] | 1.09 | 1.03 | 1.1 | 0.9 | 0.95 | 0.88 | 0.88 | 0.92 | 1.02 | 0.94 |  |  |  |  |  |  |  |  |  | 
NCCCNc1ccc(C(=O)NC(CCC(=O)O)C(=O)O)cc1 (stereo not shown) [compound 7] |  |  |  |  |  |  |  | 0.94 |  |  | 0.89 | 1.33 | 0.95 | 0.96 | 1.02 | 1.37 | 1.14 | 1.04 | 0.87 | 
CCCCCCOc1cccc(Cc2cnc(N)nc2N)c1 [compound 2] | 1.6 | 0.99 | 1.8 | 1.19 | 1.1 | 0.96 | 0.77 | 1.25 | 0.83 | 0.95 |  |  |  |  |  |  |  |  |  | 
NCCOCCOCC(=O)Nc1nc2ncc(CNc3ccc(C(=O)NC(CCC(=O)O)C(=O)O)cc3)nc2c(=O)[nH]1 (stereo not shown) [compound 6] |  |  |  |  |  |  |  | 1.02 |  |  | 1.13 | 1.33 | 1.11 | 0.99 | 1.06 | 1.39 | 1.02 | 0.96 | 0.82 | 
Nc1nc2[nH]cc(CCc3ccc(C(=O)N[C@@H](CCC(=O)O)C(=O)O)cc3)c2c(=O)[nH]1 [PTX, pemetrexed] |  |  |  |  |  |  |  |  |  |  |  |  |  |  |  |  |  |  |  | fold changes relative to vehicle control [1]: 1.06; fold changes relative to vehicle control [2]: 0.77; fold changes relative to vehicle control [3]: 1; fold changes relative to vehicle control [4]: 0.93; fold changes relative to vehicle control [5]: 0.98; fold changes relative to vehicle control [6]: 1.34; fold changes relative to vehicle control [7]: 0.99; fold changes relative to vehicle control [8]: 0.89; fold changes relative to vehicle control [9]: 1.07; fold changes relative to vehicle control [10]: 0.33
Nc1nc2c(c(=O)[nH]1)N(C=O)C(CNc1ccc(C(=O)N[C@@H](CCC(=O)O)C(=O)O)cc1)CN2 (stereo partly shown) [LEU, leucovorin] |  |  |  |  |  |  |  | 0.93 |  |  | 0.99 | 1.12 | 0.98 | 0.97 | 1.02 | 1.13 | 1.14 | 1.09 | 0.84 | 
